Data as given in patent US8778919B2, “Cyclic anilino—pyridinotriazines” (Janssen Pharmaceutica NV, priority 2005, dated 2014).

Columns and labels:
[1] = target: T1, Aurora-A (h) (Homo sapiens, UniProt O14965); assay: Kinase profiling C3.1 Aurora-A human; assay type: biochemical; details: test concentration of 10^−6 M
T1 sequence (O14965 1-403): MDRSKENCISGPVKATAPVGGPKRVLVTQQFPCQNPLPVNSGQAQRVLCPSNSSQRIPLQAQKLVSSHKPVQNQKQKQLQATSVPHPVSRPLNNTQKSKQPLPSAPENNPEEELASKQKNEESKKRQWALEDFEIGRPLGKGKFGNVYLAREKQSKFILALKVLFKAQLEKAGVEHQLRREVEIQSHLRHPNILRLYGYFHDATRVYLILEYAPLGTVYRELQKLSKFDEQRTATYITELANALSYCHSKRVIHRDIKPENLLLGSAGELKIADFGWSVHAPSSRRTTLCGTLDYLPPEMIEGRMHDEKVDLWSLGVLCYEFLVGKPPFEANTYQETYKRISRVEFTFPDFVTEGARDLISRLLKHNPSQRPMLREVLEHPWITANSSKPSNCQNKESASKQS
Experimental: (§1) The in vitro inhibition of a panel of kinases was assessed using either the glass-fiber filter technology as described by Davies, S. P. et al., Biochem J. (2000), 351; p. 95-105. In the glass-fiber filter technology the activity of the kinase of interest is measured using an appropriate substrate that is incubated with the aforementioned kinase protein in the presence of (^33P) radiolabeled ATP. (^33P) Phosporylation of the substrate is subsequently measured as radioactivity bound on a glassfiber-filter.
(§2) All kinases are pre-diluted to a 10× working concentration prior to addition into the assay. The composition of the dilution buffer for each kinase is detailed below.
(§3) All substrates are dissolved and diluted to working stocks in de-ionised water, apart from histone H1 that is stored in 10× working stock in 20 mM MOPS pH 7.4.
In a final reaction volume of 25 μl, Aurora-A (h) (5-10 mU) is incubated with 8 mM MOPS pH 7.0, 0.2 mM EDTA, 200 μM LRRASLG (Kemptide), 10 mM MgAcetate and [γ-^33P-ATP] (specific activity approx. 500 cpm/pmol, concentration as required). The reaction is initiated by the addition of the MgATP mix. After incubation for 40 minutes at room temperature, the reaction is stopped by the addition of 5 μl of a 3% phosphoric acid solution. 10 μl of the reaction is then spotted onto a P30 filtermat and washed three times for 5 minutes in 50 mM phosphoric acid and once in methanol prior to drying and scintillation counting.

[2] = target: cSRC (h) (Homo sapiens, UniProt P12931); assay: Kinase profiling C3.9 cSRC human; assay type: biochemical; details: test concentration of 10^−6 M
Sequence of cSRC (h) (P12931 whole entry): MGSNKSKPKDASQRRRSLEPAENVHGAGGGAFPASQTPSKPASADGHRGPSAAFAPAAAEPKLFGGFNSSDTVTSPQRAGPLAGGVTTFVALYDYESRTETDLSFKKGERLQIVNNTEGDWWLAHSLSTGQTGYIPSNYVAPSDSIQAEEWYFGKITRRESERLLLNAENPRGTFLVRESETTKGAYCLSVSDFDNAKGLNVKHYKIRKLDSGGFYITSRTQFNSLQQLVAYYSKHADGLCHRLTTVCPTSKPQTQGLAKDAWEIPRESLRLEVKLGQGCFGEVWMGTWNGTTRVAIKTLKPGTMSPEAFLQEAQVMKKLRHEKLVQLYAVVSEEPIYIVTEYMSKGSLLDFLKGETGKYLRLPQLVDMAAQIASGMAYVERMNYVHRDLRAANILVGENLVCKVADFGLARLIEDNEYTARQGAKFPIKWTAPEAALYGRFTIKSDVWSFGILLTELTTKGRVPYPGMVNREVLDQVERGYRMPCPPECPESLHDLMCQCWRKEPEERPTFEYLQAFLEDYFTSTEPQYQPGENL
Experimental: as §1, §2, §3
In a final reaction volume of 25 μl, cSRC (h) (5-10 mU) is incubated with 8 mM MOPS pH 7.0, 0.2 mM EDTA, 250 μM KVEKIGEGTYGVVYK (Cdc2 peptide), 10 mM MgAcetate and [γ-^33P-ATP] (specific activity approx. 500 cpm/pmol, concentration as required). The reaction is initiated by the addition of the MgATP mix. After incubation for 40 minutes at room temperature, the reaction is stopped by the addition of 5 μl of a 3% phosphoric acid solution.
10 μl of the reaction is then spotted onto a P30 filtermat and washed three times for 5 minutes in 75 mM phosphoric acid and once in methanol prior to drying and scintillation counting.

For `CN1CC(=O)NCC#Cc2cc(ccn2)-c2ncnc(n2)Nc2cccc(c2)C1` [Compound 1], the C3.1 score [1] was 1 (Score 1 = 10-30% inhibition), the C3.9 score [2] was 3 (Score 3 = 60-80% inhibition) and the melting point was 267.5 to 269.3 °C.

With `CN1CC(=O)NC/C(Cl)=C/c2cc(ccn2)-c2ncnc(n2)Nc2cccc(c2)C1` [Compound 2] the C3.1 score [1] was 2 (Score 2 = 30-60% inhibition) and the C3.9 score [2] was 4 (Score 4 = >80% inhibition).

With `CN1CCC(=O)NCCCc2cc(ccn2)-c2ncnc(n2)Nc2cccc(c2)C1` [Compound 3] the C3.1 score [1] was 1 (Score 1 = 10-30% inhibition) and the C3.9 score [2] was 2 (Score 2 = 30-60% inhibition).

With `CN1CCCc2cc(ccn2)-c2ncnc(n2)Nc2cccc(c2)CNC(=O)C1` [Compound 7] the C3.1 score [1] was 1 (Score 1 = 10-30% inhibition), the C3.9 score [2] was 2 (Score 2 = 30-60% inhibition) and the melting point was 201.9 to 203.3 °C.

In the case of `CN1CC(=O)NCCCc2cc(ccn2)-c2ncnc(n2)Nc2cccc(c2)C1` [Compound 10], the C3.1 score [1] is reported as 1 (Score 1 = 10-30% inhibition) and the C3.9 score [2] is reported as 2 (Score 2 = 30-60% inhibition).

For `CN1CCN(CCN2CCC(=O)NCCCc3cc(ccn3)-c3ncnc(n3)Nc3cccc(c3)C2)CC1` [Compound 11], the C3.1 score [1] was 1 (Score 1 = 10-30% inhibition) and the C3.9 score [2] was 1 (Score 1 = 10-30% inhibition).

For `O=C1NCCCc2cc(ccn2)-c2ncnc(n2)Nc2cccc(c2)CN2CCCC12` (stereo not shown) [Compound 12], the C3.1 score [1] was 1 (Score 1 = 10-30% inhibition) and the C3.9 score [2] was 2 (Score 2 = 30-60% inhibition).

For `CN1CCCC(=O)NCCCc2cc(ccn2)-c2ncnc(n2)Nc2cccc(c2)C1` [Compound 13], the C3.1 score [1] was 2 (Score 2 = 30-60% inhibition) and the C3.9 score [2] was 2 (Score 2 = 30-60% inhibition).

With `O=C1NCCCc2cc(ccn2)-c2ncnc(n2)Nc2cccc(c2)CN2C[C@H](O)C[C@@H]12` [Compound 14] the C3.1 score [1] was 2 (Score 2 = 30-60% inhibition) and the C3.9 score [2] was 2 (Score 2 = 30-60% inhibition).

For `O=C1NCCCc2cc(ccn2)-c2ncnc(n2)Nc2cccc(c2)CN2CCCC1C2` (stereo not shown) [Compound 15], the C3.1 score [1] was 1 (Score 1 = 10-30% inhibition) and the C3.9 score [2] was 1 (Score 1 = 10-30% inhibition).

For `O=C1CCN2CCN(CC2)Cc2cccc(c2)Nc2ncnc(n2)-c2ccnc(c2)CCCN1` [Compound 35], the C3.1 score [1] was 1 (Score 1 = 10-30% inhibition) and the C3.9 score [2] was 2 (Score 2 = 30-60% inhibition).

In the case of `O=C1CN2CCN(CC2)Cc2cccc(c2)Nc2ncnc(n2)-c2ccnc(c2)CCCN1` [Compound 36], the C3.1 score [1] is reported as 1 (Score 1 = 10-30% inhibition) and the C3.9 score [2] is reported as 1 (Score 1 = 10-30% inhibition).

In the case of `CCN1CC(=O)NCCCc2cccc(c2)-c2ncnc(n2)Nc2cccc(c2)C1` [Compound 54], the C3.9 score [2] is reported as 1 (Score 1 = 10-30% inhibition).

For `O=C1NCCCc2cc(ccc2F)-c2ncnc(n2)Nc2cc(Cl)cc(c2)CN[C@H]1CO` [Compound 71], the C3.1 score [1] was 2 (Score 2 = 30-60% inhibition) and the C3.9 score [2] was 4 (Score 4 = >80% inhibition).

With `O=C1NCCCc2cncc(c2)-c2ncnc(n2)Nc2cccc(c2)CN[C@H]1CO` [Compound 81] the C3.1 score [1] was 1 (Score 1 = 10-30% inhibition) and the C3.9 score [2] was 1 (Score 1 = 10-30% inhibition).
